Molecule `NC(=O)CC[C@H](N)C(=O)O` has a solubility (mole fraction) (in 2-butanone, 283.15 K) of 0.00015, a solubility (mole fraction) (in 2-butanone, 288.15 K) of 0.00017 and a solubility (mole fraction) (in 2-butanone, 293.15 K) of 0.0002. It also gave a solubility (mole fraction) (in 2-butanone, 298.15 K) of 0.000237, a solubility (mole fraction) (in 2-butanone, 303.15 K) of 0.000271 and a solubility (mole fraction) (in 2-butanone, 308.15 K) of 0.000301. The solubility (mole fraction) (in 2-butanone, 313.15 K) was 0.000338, the solubility (mole fraction) (in 2-butanone, 318.15 K) was 0.000373 and the solubility (mole fraction) (in 2-butanone, 323.15 K) was 0.00041. The solubility (mole fraction) (in acetonitrile, 283.15 K) was 3.44e-05, the solubility (mole fraction) (in acetonitrile, 288.15 K) was 6.77e-05 and the solubility (mole fraction) (in acetonitrile, 293.15 K) was 0.000104. For the same molecule, the solubility (mole fraction) (in acetonitrile, 298.15 K) was 0.000138, the solubility (mole fraction) (in acetonitrile, 303.15 K) was 0.000164 and the solubility (mole fraction) (in acetonitrile, 308.15 K) was 0.000192. The solubility (mole fraction) (in acetonitrile, 313.15 K) was 0.000225, the solubility (mole fraction) (in acetonitrile, 318.15 K) was 0.000254 and the solubility (mole fraction) (in acetonitrile, 323.15 K) was 0.000283. For the same molecule, the solubility (mole fraction) (in ethanol, 283.15 K) was 0.000273, the solubility (mole fraction) (in ethanol, 288.15 K) was 0.000304 and the solubility (mole fraction) (in ethanol, 293.15 K) was 0.000337. The solubility (mole fraction) (in ethanol, 298.15 K) was 0.000372, the solubility (mole fraction) (in ethanol, 303.15 K) was 0.000408 and the solubility (mole fraction) (in ethanol, 308.15 K) was 0.000447. It also gave a solubility (mole fraction) (in ethanol, 313.15 K) of 0.000494, a solubility (mole fraction) (in ethanol, 318.15 K) of 0.000522 and a solubility (mole fraction) (in ethanol, 323.15 K) of 0.000584. The solubility (mole fraction) (in ethyl acetate, 283.15 K) was 2.94e-05, the solubility (mole fraction) (in ethyl acetate, 288.15 K) was 5.21e-05 and the solubility (mole fraction) (in ethyl acetate, 293.15 K) was 0.000138. For the same molecule, the solubility (mole fraction) (in ethyl acetate, 298.15 K) was 0.000218, the solubility (mole fraction) (in ethyl acetate, 303.15 K) was 0.000293 and the solubility (mole fraction) (in ethyl acetate, 308.15 K) was 0.000362. The solubility (mole fraction) (in ethyl acetate, 313.15 K) was 0.000452, the solubility (mole fraction) (in ethyl acetate, 318.15 K) was 0.00054 and the solubility (mole fraction) (in ethyl acetate, 323.15 K) was 0.000653. For the same molecule, the solubility (mole fraction) (in isobutanol, 283.15 K) was 5.11e-05, the solubility (mole fraction) (in isobutanol, 288.15 K) was 0.000112 and the solubility (mole fraction) (in isobutanol, 293.15 K) was 0.000163. The solubility (mole fraction) (in isobutanol, 298.15 K) was 0.000254, the solubility (mole fraction) (in isobutanol, 303.15 K) was 0.000348 and the solubility (mole fraction) (in isobutanol, 308.15 K) was 0.000442. The solubility (mole fraction) (in isobutanol, 313.15 K) was 0.000556, the solubility (mole fraction) (in isobutanol, 318.15 K) was 0.000662 and the solubility (mole fraction) (in isobutanol, 323.15 K) was 0.000798. It also gave a solubility (mole fraction) (in methanol, 283.15 K) of 9.5e-05, a solubility (mole fraction) (in methanol, 288.15 K) of 0.000101 and a solubility (mole fraction) (in methanol, 293.15 K) of 0.000114. The solubility (mole fraction) (in methanol, 298.15 K) was 0.000134, the solubility (mole fraction) (in methanol, 303.15 K) was 0.000164 and the solubility (mole fraction) (in methanol, 308.15 K) was 0.000205. It also gave a solubility (mole fraction) (in methanol, 313.15 K) of 0.00025, a solubility (mole fraction) (in methanol, 318.15 K) of 0.000286 and a solubility (mole fraction) (in methanol, 323.15 K) of 0.000347. The solubility (mole fraction) (in n-butanol, 283.15 K) was 0.000184, the solubility (mole fraction) (in n-butanol, 288.15 K) was 0.00023 and the solubility (mole fraction) (in n-butanol, 293.15 K) was 0.000291. The solubility (mole fraction) (in n-butanol, 298.15 K) was 0.00035, the solubility (mole fraction) (in n-butanol, 303.15 K) was 0.0004 and the solubility (mole fraction) (in n-butanol, 308.15 K) was 0.000458. It also gave a solubility (mole fraction) (in n-butanol, 313.15 K) of 0.000522, a solubility (mole fraction) (in n-butanol, 318.15 K) of 0.000574 and a solubility (mole fraction) (in n-butanol, 323.15 K) of 0.000635. It also gave a solubility (mole fraction) (in n-hexane, 283.15 K) of 0.000129, a solubility (mole fraction) (in n-hexane, 288.15 K) of 0.000196 and a solubility (mole fraction) (in n-hexane, 293.15 K) of 0.000263. The solubility (mole fraction) (in n-hexane, 298.15 K) was 0.000346, the solubility (mole fraction) (in n-hexane, 303.15 K) was 0.000425 and the solubility (mole fraction) (in n-hexane, 308.15 K) was 0.000494. For the same molecule, the solubility (mole fraction) (in n-hexane, 313.15 K) was 0.000554, the solubility (mole fraction) (in n-hexane, 318.15 K) was 0.000621 and the solubility (mole fraction) (in n-hexane, 323.15 K) was 0.000681. It also gave a solubility (mole fraction) (in n-pentanol, 283.15 K) of 8.57e-05, a solubility (mole fraction) (in n-pentanol, 288.15 K) of 0.000109 and a solubility (mole fraction) (in n-pentanol, 293.15 K) of 0.000137. The solubility (mole fraction) (in n-pentanol, 298.15 K) was 0.000163, the solubility (mole fraction) (in n-pentanol, 303.15 K) was 0.000245 and the solubility (mole fraction) (in n-pentanol, 308.15 K) was 0.000335. For the same molecule, the solubility (mole fraction) (in n-pentanol, 313.15 K) was 0.000448, the solubility (mole fraction) (in n-pentanol, 318.15 K) was 0.000556 and the solubility (mole fraction) (in n-pentanol, 323.15 K) was 0.000654. The solubility (mole fraction) (in n-propanol, 283.15 K) was 8.13e-05, the solubility (mole fraction) (in n-propanol, 288.15 K) was 0.000115 and the solubility (mole fraction) (in n-propanol, 293.15 K) was 0.000156. The solubility (mole fraction) (in n-propanol, 298.15 K) was 0.000189, the solubility (mole fraction) (in n-propanol, 303.15 K) was 0.000227 and the solubility (mole fraction) (in n-propanol, 308.15 K) was 0.000266. For the same molecule, the solubility (mole fraction) (in n-propanol, 313.15 K) was 0.000321, the solubility (mole fraction) (in n-propanol, 318.15 K) was 0.000375 and the solubility (mole fraction) (in n-propanol, 323.15 K) was 0.000434. For the same molecule, the solubility (mole fraction) (in sec-butanol, 283.15 K) was 5.51e-05, the solubility (mole fraction) (in sec-butanol, 288.15 K) was 0.000106 and the solubility (mole fraction) (in sec-butanol, 293.15 K) was 0.00017. The solubility (mole fraction) (in sec-butanol, 298.15 K) was 0.000231, the solubility (mole fraction) (in sec-butanol, 303.15 K) was 0.000281 and the solubility (mole fraction) (in sec-butanol, 308.15 K) was 0.000353. For the same molecule, the solubility (mole fraction) (in sec-butanol, 313.15 K) was 0.00042, the solubility (mole fraction) (in sec-butanol, 318.15 K) was 0.000501 and the solubility (mole fraction) (in sec-butanol, 323.15 K) was 0.000593. It also gave a solubility (mole fraction) (in water, 283.15 K) of 0.00356, a solubility (mole fraction) (in water, 288.15 K) of 0.00409 and a solubility (mole fraction) (in water, 293.15 K) of 0.00471. For the same molecule, the solubility (mole fraction) (in water, 298.15 K) was 0.00533, the solubility (mole fraction) (in water, 303.15 K) was 0.00595 and the solubility (mole fraction) (in water, 308.15 K) was 0.00682. It also gave a solubility (mole fraction) (in water, 313.15 K) of 0.00811, a solubility (mole fraction) (in water, 318.15 K) of 0.0097 and a solubility (mole fraction) (in water, 323.15 K) of 0.0121.
